Measurements reported in PMC4269550, “Lead Optimization of a Pyrazole Sulfonamide Series of Trypanosoma bruceiN-Myristoyltransferase Inhibitors: Identification and Evaluation of CNS Penetrant Compounds as Potential Treatments for Stage 2 Human African Trypanosomiasis” (Journal of Medicinal Chemistry, 2014).
Several values for one entry are separate records, joined by “and”; a condition that tells them apart may be missing. Equal values may be shown once.

How the values were obtained:
[1] = Maximum tolerated dose in mice; conditions: mouse, in vivo
[2] = system: T. b. rhodesiense STIB900; test: Stage 1 HAT mouse efficacy model, T. b. rhodesiense STIB900; assay type: in vivo; conditions: b.i.d. po for 4 days
Mouse pharmacokinetics = assay type: in vivo; conditions: for oral exposure in mouse: words; for Cmax: oral dose 50mg/kg
Method: Test compound was dosed as a bolus solution intravenously at 3 mg free base/kg (dose volume, 5 mL/kg; dose vehicle, saline or 5% DMSO; 40% PEG400; 55% saline) to female NMRI mice (n = 3) or dosed orally by gavage as a solution at 10 and/or 50 mg free base/kg (dose volume, 5 mL/kg; dose vehicle, 5% DMSO; 95% distilled water or 5% DMSO; 40% PEG400; 55% distilled water) to female NMRI mice (n = 3/dose level). Female NMRI mice were chosen as these represent the sex and strain used for the stage 1 and stage 2 HAT efficacy models. Blood samples were taken from each mouse at 2 (IV only), 5 (IV only), 15, and 30 min, 1, 2, 4, 6, 8, and 24 (po only) hours postdose and mixed with two volumes of distilled water. After suitable sample preparation, the concentration of test compound in blood was determined by UPLC-MS/MS using a Quattro Premier XE (Waters, USA). Pharmacokinetic parameters were derived from the mean blood concentration time curve using PKsolutions software v 2.0 (Summit Research Services, USA).

[3] = In vitro metabolite identification with mouse microsomes; assay type: in vitro ADME; conditions: for % Parent remaining (t = 15 min): 5µM, 15 min at 37°C, mouse liver microsomes; for sulfonamide N-dealkylation on incubation with mouse microsomes: words
[4] = Intrinsic clearance (Cli), mouse liver microsomes; assay type: in vitro ADME; conditions: for Cli (mouse): mouse liver microsomes; for Cli: mouse microsomes
in vitro = assay type: cell-based, human; conditions: human; read-out: MRC-5 EC50
[5] = system: T. b. brucei, BSF427, VSG118; test: Cell viability assay, trypanosome; assay type: cell-based; conditions: for ~EC99: T. brucei
[6] = Dose calculations for in vivo efficacy studies (brain concentration, brain free fraction); conditions: for oral dose needed to deliver stage 2 cures (Dose required): b.i.d., calculated to keep brain free concentration above T. brucei EC99
Method: isofluorane. A blood sample was taken by cardiac puncture into two volumes of distilled water and the brain removed. After suitable sample preparation, the concentration of 1 in blood and brain was determined by UPLC/MS/MS using a Quattro Premier XE (Waters, USA). For each rat, the concentration in brain (ng/g) was divided by the concentration in blood (ng/mL) to give a brain:blood (B:B) ratio. The mean value obtained was quoted. A higher B:B ratio in animals pre-treated with GF120918 is indicative of a Pgp substrate.
Dose calculations for in vivo efficacy studies.
Property Compound 40 Compound 46 Compound 42
Oral Dose 50mg/kg 50mg/kg 50mg/kg

T. b. brucei GVR35 = assay type: in vivo; conditions: for toxicity in infected mice in stage 2 model: dosed at the MTD b.i.d. po for 5 days, mice affected
Description: NMRI mice used in the experiment were purchased from Harlan, UK. Mice were maintained under standard temperature/lighting conditions and given food and water ad libitum. The trypanosomes used in this study were of the cloned stabilate T. b. brucei GVR35, originally derived from trypanosomes isolated from a wildebeest in the Serengeti in 1966.[31] By 13 days postinfection, parasites entered the CNS.[32] If treatment is delayed until 21 days after infection, successful cure is therefore dependent on the ability of the compound to penetrate through the blood–brain barrier.[33] This model is widely used to evaluate the efficacy of new compounds for treatment against stage 2 HAT.[34]
Cryopreserved T. b. brucei GVR35 trypomastigotes were diluted to ∼5 × 10^4 cells/mL in 20 mM Hanks Balanced Salt Solution with glucose, and 0.2 mL of that dilution was used for infection (∼1 × 10^4 cells/mL per animal). All animals in the groups were intraperitoneally infected (ip) on day 0. After infection, parasitaemia was monitored by examination of tail blood smears. On day 21, post infection animals were randomly allocated to five mice per group. Infected animals were dosed with one of the following: diaminazene diaceturate (ip), 40 mg/kg once only as a HAT stage 1 control (early stage tyrypanocide to clear the parasites in the systemic circulation and in tissues other than CNS); Melasoprol (ip), 10 mg/kg once daily for 5 days as a positive control for HAT stage 2; […]. One group of five mice was an untreated control group. The dose solutions were prepared daily, using 5% DMSO:40% PEG400:55% Milli-Q water for compound (i.e., 40) and 10% DMSO:90% peanut oil for control drugs. To measure the response to treatment, parasitaemia was monitored twice per week until day 50. After day 50, the mice were checked only once per week until day 180 post treatment. Mice surviving to the end of experiment and blood smear aparasitaemic were considered cured.

T. b. brucei S427 = test: Stage 1 HAT mouse efficacy model, T. b. brucei S427; assay type: in vivo; conditions: T. b. brucei S427, 50 mg/kg b.i.d. po for 4 days
[7] = system: MRC5, human lung fibroblast cells; test: in vitro; assay type: cell-based
TbNMT = target: T1, TbNMT (Trypanosoma brucei brucei, UniProt Q388H8); test: NMT enzyme inhibition scintillation proximity assay (TbNMT); assay type: biochemical, T. brucei; conditions: mean of two or more determinations; read-out: TbNMT IC50
T1 sequence (Q388H8 1-446): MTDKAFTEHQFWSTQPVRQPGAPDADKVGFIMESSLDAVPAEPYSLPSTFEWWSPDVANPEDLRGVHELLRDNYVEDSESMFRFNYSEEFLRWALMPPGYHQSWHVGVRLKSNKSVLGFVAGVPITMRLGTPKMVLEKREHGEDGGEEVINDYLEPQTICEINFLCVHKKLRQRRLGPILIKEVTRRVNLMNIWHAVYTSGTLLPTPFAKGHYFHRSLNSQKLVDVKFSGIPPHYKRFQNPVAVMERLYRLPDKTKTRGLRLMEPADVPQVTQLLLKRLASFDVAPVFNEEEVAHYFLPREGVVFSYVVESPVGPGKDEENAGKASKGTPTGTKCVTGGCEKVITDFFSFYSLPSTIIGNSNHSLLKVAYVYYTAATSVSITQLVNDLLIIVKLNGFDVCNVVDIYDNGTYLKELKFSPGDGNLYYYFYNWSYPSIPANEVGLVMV

HsNMT = assay type: biochemical, human; conditions: for IC50: mean of two or more determinations; for S = IC50 HsNMT/EC50 T. brucei: selectivity
[8] = female, NMRI, whole blood, mouse

Row | SMILES | Cli (mouse) [4] [mL min^–1 g^–1] | EC50 [7] [nM] | IC50 (TbNMT) [nM] | EC50 [5] [nM] | IC50 (HsNMT) [nM] | S = IC50 HsNMT/EC50 T. brucei (HsNMT) | further results
1 | Cc1c(NS(=O)(=O)c2c(Cl)cc(-c3ccnc(N4CCNCC4)c3)cc2Cl)c(CC(C)C)nn1C [compound 6] | – | – | – | – | – | – | MTD ([1]; po): 20 mg/kg; stage 1 HAT minimal curative dose, T. b. rhodesiense STIB900 [2]: 6 mg/kg; AUC(0-t) (Mouse pharmacokinetics; female, NMRI, whole blood, mouse, 10 mg/kg po, read-out: AUC0–8 (converted)): 56700 ng·h/mL
2 | CCN(c1c(C)nn(C)c1C)S(=O)(=O)c1c(Cl)cc(CCCN2CCN(C)CC2)cc1Cl [compound 34] | 3.1 | – | – | – | – | – | % Parent remaining (t = 15 min) [3]: 37%; sulfonamide N-dealkylation on incubation with mouse microsomes [3]: N-dealkylated sulfonamide as the predominant metabolite; oral exposure in mouse (Mouse pharmacokinetics): poor oral exposure; Cli [4]: 3.1 mL/min/g
3 | Cc1nn(C)c(C)c1N(C)[S+](=O)([O-])c1c(Cl)cc(CCCC2CCN(C)CC2)cc1Cl [compound 37] | 7.3 | – | – | – | – | – | EC50 (in vitro): 1100 nM; % Parent remaining (t = 15 min) [3]: 25%; sulfonamide N-dealkylation on incubation with mouse microsomes [3]: N-dealkylated sulfonamide as the predominant metabolite; Cli [4]: 7.3 mL/min/g
4 | CCN(c1c(C)nn(C)c1C)[S+](=O)([O-])c1c(Cl)cc(CCCC2CCN(C)CC2)cc1Cl [compound 39] | 12 | – | – | – | – | – | EC50 (in vitro): 2200 nM; % Parent remaining (t = 15 min) [3]: 52%; sulfonamide N-dealkylation on incubation with mouse microsomes [3]: N-dealkylated sulfonamide as the predominant metabolite
5 | Cc1nn(C)c(C)c1N(C(F)F)S(=O)(=O)c1c(Cl)cc(CCCC2CCN(C)CC2)cc1Cl [compound 40, 2,6-Dichloro-N-(difluoromethyl)-4-(3-(1-methylpiperidin-4-yl)propyl)-N-(1,3,5-trimethyl-1H-pyrazol-4-yl)benzenesulfonamide] | – | – | – | – | – | – | MTD at 1 day ([1]; po): 100 mg/kg; % Parent remaining (t = 15 min) [3]: 67%; sulfonamide N-dealkylation on incubation with mouse microsomes [3]: did not undergo sulfonamide N-dealkylation; ~EC99 [5]: […]; oral dose needed to deliver stage 2 cures (Dose required) [6]: 20 mg/kg; fraction unbound ([6]; mouse, in vivo): 0.019; Conc in brain ([6]; oral dose 50mg/kg): 1031 ng/g; Free brain conc ([6]; oral dose 50mg/kg): 19.6 ng/g; toxicity in infected mice in stage 2 model (T. b. brucei GVR35): 1/5; efficacy in stage 2 model (mice cured) (T. b. brucei GVR35; the two 100 mg/kg extended dosing schedules (8 days; 3 x 3 days pulsed)): 1/5; efficacy in a stage 2 (CNS) mouse model of HAT (T. b. brucei GVR35; words): partial efficacy; Activity in stage 1 mouse model (T. b. brucei S427): fully curative; Cmax (Mouse pharmacokinetics; [8]): 661 ng/mL; oral exposure in mouse (Mouse pharmacokinetics): good oral exposure
6 | Cc1nn(C)c(C)c1N(CC(F)(F)F)[S+](=O)([O-])c1c(Cl)cc(CCCC2CCN(C)CC2)cc1Cl [compound 42] | 1.1 | – | – | – | – | – | MTD at 1 day [1]: > 200 mg/kg; ~EC99 [5]: ~56 nM and ~31 ng/mL; concentration at 8 h ([6]; NMRI, mouse, in vivo, oral dose 50mg/kg, read-out: Free brain conc at 8 hours post-dose): 6.2 ng/g; oral dose needed to deliver stage 2 cures (Dose required) [6]: 250 mg/kg; fraction unbound ([6]; mouse, in vivo): 0.032; Conc in brain ([6]; oral dose 50mg/kg): 569 ng/g; Free brain conc ([6]; oral dose 50mg/kg): 18.2 ng/g; cures in stage 2 model (T. b. brucei GVR35; T. b. brucei GVR35, 150 mg/kg b.i.d. po for 5 days): none of the mice were cured; toxicity in infected mice in stage 2 model (T. b. brucei GVR35): well tolerated; Activity in stage 1 mouse model (T. b. brucei S427): fully curative; Cmax (Mouse pharmacokinetics; [8]): 876 ng/mL; Cli [4]: 1.1 mL/min/g
7 | Cc1nn(C)c(C)c1N(C(F)F)S(=O)(=O)c1c(Cl)cc(CCCN2CCN3CCC[C@@H]3C2)cc1Cl [compound 53] | 15 | – | – | – | – | – | oral exposure in mouse (Mouse pharmacokinetics): no improvement to oral exposure; Cli [4]: 15 mL/min/g
8 | Cc1nn(C)c(C)c1N(C(F)F)S(=O)(=O)c1c(Cl)cc(CCCOC2CC3CCC(C2)N3C)cc1Cl (stereo not drawn) [compound 71] | – | 1500 | 2 | 10 | 62 | 6 | –
9 | Cc1nn(C)c(C)c1N(C(F)F)S(=O)(=O)c1c(Cl)cc(CCCOC2CC(C)(C)N(C)C(C)(C)C2)cc1Cl [compound 75] | – | 5300 | 10 | 64 | 1700 | 27 | –
10 | Cc1nn(C)c(C)c1N(C(F)F)S(=O)(=O)c1c(Cl)cc(CCCOC2CCC(N(C)C)CC2)cc1Cl (stereo not drawn) [compound 76] | – | 570 | 2 | 3 | 5 | 2 | –
11 | CCN(CC)CCCCCCc1cc(Cl)c(S(=O)(=O)N(c2c(C)nn(C)c2C)C(F)F)c(Cl)c1 [compound 81] | – | 2900 | 3 | 14 | 42 | 3 | –
12 | Cc1nn(C)c(C)c1N(C(F)F)S(=O)(=O)c1c(Cl)cc(CCCCCCN(C)C(C)C)cc1Cl [compound 84] | – | 5100 | 3 | 38 | 180 | 5 | –
13 | Cc1nn(C)c(C)c1N(C(F)F)S(=O)(=O)c1c(Cl)cc(CCCOC[C@@H]2CCCN2)cc1Cl [compound 86] | – | 3300 | 2 | 6 | 110 | 18 | –
14 | Cc1nn(C)c(C)c1N(C(F)F)S(=O)(=O)c1c(Cl)cc(CCCOC[C@@H]2CCCCN2)cc1Cl [compound 88] | – | 5300 | 7 | 87 | 840 | 10 | –
15 | Cc1nn(C)c(C)c1N(C(F)F)S(=O)(=O)c1c(Cl)cc(CCCOC[C@H]2CCCCN2)cc1Cl [compound 89] | – | 5000 | 7 | 85 | 570 | 7 | –
